# Source: patent US8378117B2 (priority 2005, dated 2013)
# Legend:
# CB2 receptor [1] = target: T1, CB2 receptor (Homo sapiens, UniProt P34972); assay: Binding assay for CB2 agonists or inverse agonists (SK-N-MC membranes, [3H]-CP-55,940)
# T1 construct: expressed in transfected cells
# How it was run: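 Membranes from SK-N-MC cells stably expressing human CB2 were incubated with radioligand and test compounds for 90 min at 30 °C in Tris-HCl buffer, pH 7.5, with MgCl2, EDTA and fatty-acid-free BSA. Filter-bound radioactivity was counted; IC50 was derived by linear regression of percent inhibition.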
# CB1 receptor [2] = target: T2, CB1 receptor (Homo sapiens, UniProt P21554); assay: Modified functional cell-based assay (Beta-Glo luminescence), CB1 receptor; settings: CB1 EC50 (Receptor Functional Activity), one sample per compound, Cpd 237 n=3
# T2 construct: expressed in transfected cells
# T2 sequence (P21554 whole entry): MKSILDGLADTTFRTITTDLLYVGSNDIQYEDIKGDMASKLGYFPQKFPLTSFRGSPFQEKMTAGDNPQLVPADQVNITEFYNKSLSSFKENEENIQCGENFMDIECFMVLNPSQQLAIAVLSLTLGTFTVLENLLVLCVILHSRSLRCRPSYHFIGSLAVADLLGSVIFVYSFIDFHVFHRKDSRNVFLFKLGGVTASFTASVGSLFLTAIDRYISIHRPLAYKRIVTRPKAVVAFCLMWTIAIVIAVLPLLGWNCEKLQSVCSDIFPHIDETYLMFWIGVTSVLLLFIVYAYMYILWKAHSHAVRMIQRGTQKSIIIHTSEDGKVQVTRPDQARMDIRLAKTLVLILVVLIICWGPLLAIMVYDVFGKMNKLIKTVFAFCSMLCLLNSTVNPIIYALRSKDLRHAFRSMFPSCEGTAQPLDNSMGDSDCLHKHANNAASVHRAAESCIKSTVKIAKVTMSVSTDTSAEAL
# Procedure: (§1) Additional functional activity studies were performed with minor modifications. Beta galactosidase activity was quantified using the luminescent Beta-Glo Assay System (Promega Corp. Madison, Wis.) and an Orion Microplate Luminometer (Berthold Detection Systems, Oak Ridge, Tenn.). The EC50 values were calculated using GraphPad Prism and a four parameter logistic equation.
# (§2) The functional activity EC50 value for compounds tested (shown in Table 8) were obtained from studies in which varying compound concentrations were used. With the exception of Cpd 237 (n=3), one sample for each compound was tested.
# CB2 receptor [3] = target: T1, CB2 receptor; assay: Modified functional cell-based assay (Beta-Glo luminescence), CB2 receptor; settings: CB2 EC50 (Receptor Functional Activity), one sample per compound, Cpd 237 n=3
# Procedure: as §1, §2
# CB1 receptor [4] = target: T2, CB1 receptor; assay: Binding assay for CB1 agonists or inverse agonists (SK-N-MC membranes, [3H]-CP-55,940)
# How it was run: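 Membranes from SK-N-MC cells stably expressing human CB1 incubated with compound and [3H]-CP-55,940 ([…]) for 90 min at 30° C in Tris-HCl pH 7.5, MgCl2, EDTA, fatty-acid-free BSA. Non-specific binding defined with 10 uM WIN 55,212; filtration, scintillation count; IC50 by linear regression.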
# CB1 receptor [5] = target: T2, CB1 receptor; assay: Modified binding assay, CB1 receptor in CHO cells, [3H]CP 55940; settings: [3H]CP 55940 0.5 nM, 120 minutes at 37° C.
# Procedure: (§3) Additional receptor binding studies were performed with minor modifications as detailed below.
# (§4) The human CB1 and CB2 receptors were stably expressed in CHO cells as described in Rinaldi-Carmona, M., Calandra, B., Shire, D., Bouaboula, M., Oustric, D., Barth, F., Casellas, P., Ferrara, P. and Le Fur, G. (1996) J. PharmacoL Exp. Ther., 278: 871-878 and Munro, S., Thomas, K. L. and Abu-Shaar, M. (1993) Nature, 365: 61-65, respectively. [^3H]CP 55940 (0.5 nM) was used as the radioligand for the CB1 receptor binding assay. [^3H]WIN 55212 (0.8 nM) was used as the radioligand for the CB2 receptor binding assay. Incubation was carried out for 120 minutes at 37° C.
# (§5) The specific ligand binding to the receptors is defined as the difference between the total binding and the nonspecific binding determined in the presence of an excess of unlabelled ligand. The results are expressed as a percent of control specific binding ((measured specific binding/control specific binding)×100) obtained in the presence of the test compounds.
# (§6) The IC50 values (concentration causing a half-maximal inhibition of control specific binding) were determined by non-linear regression analysis of the competition curves generated with mean replicate values using Hill equation curve fitting (where Y=specific binding, D=minimum specific binding, A=maximum specific binding, C=compound concentration, C50=IC50 and nH=slope factor): (Y=D+[(A−D)/(1+(C/C50)^nH)] CB1 and CB2 Receptor Binding Results
# (§7) For compounds tested, an IC50 binding value was obtained from percent inhibition studies in which various test concentrations were used.
# CB2 receptor [6] = target: T1, CB2 receptor; assay: Modified binding assay, CB2 receptor in CHO cells, [3H]WIN 55212; settings: [3H]WIN 55212 0.8 nM, 120 minutes at 37° C.
# Procedure: as §3, §4, §5, §6, §7
# Male CD-1 mice [7] = assay: Postoperative inflammatory ileus, upper gastrointestinal transit (FITC-dextran, Geometric Center); type: in vivo; settings: Surgical Manipulation, dose 1 mg/kg, 24 hr post-laparotomy, mean ± SE; scale 1 to 15
# Procedure: (§8) Male CD-1 mice were anesthetized by inhaled isoflurane and prepared for surgery. The abdomen was shaved of hair and treated with antiseptic solution. The animal was then covered with a surgical drape, leaving the abdomen exposed. A mid-line laparotomy was performed, and the entire small intestine was exteriorized onto the sterile drape. Using two moistened, sterile, cotton-tipped applicators, the small intestine was then gently compressed along its length from the ligament of Treitz to the ileo-cecal junction. The small intestine was then returned to the abdominal cavity and the incision closed by two layers of sutures.
# (§9) Age-matched mice were randomly assigned to groups (6 animals per group) and injected intraperitoneally (i.p.) with “vehicle” (a mixture of 5% ethanol/5% Tween80/90% of 5% dextran in water w/v) containing various doses of a test compound 1 hr prior to laparotomy. The second group was injected intraperitoneally with vehicle. The third group was administered intragastrically (1 mg/kg) a mixture (1 mg/mL) of dexamethasone in 20% hydroxypropyl methyl dextran in water, once per day for two days prior to surgery and 5 hrs post-laparotomy. The fourth group received no intervention and served as naïve controls.
# Upper gastrointestinal transit was measured 24 hr post-laparotomy. Mice were fed a test meal consisting of 150 μL of FITC-dextran solution (5 mg/mL of 70,000 molecular weight dextran conjugated to fluorescein-isothiocyanate in 0.5% hydroxypropyl methylcellulose/deionized water) administered intragastrically by an 18 gauge feeding tube. Following oral administration of the FITC-dextran test meal, animals were returned to their home cages. Following a 45 min test period, mice were euthanized by isoflurane overdose and exsanguination. The entire gastrointestinal tract from the lower esophageal sphincter to the terminal colon was removed. The bowel segments were opened along the mesenteric border. The tissue and luminal contents of the stomach, 10 equal segments of small intestine, the cecum, and 3 equal segments of colon were placed in individual Eppendorf tubes containing 1 ml of PBS. The tissue was vigorously mixed on a tabletop vortex, and solid materials were pelletized by centrifugation. Aliquots of the cleared supernatant were read in duplicate on a 96-well fluorescence plate reader to quantify the magnitude of the fluorescent signal in each segment of bowel.
# These values were used to calculate the Geometric Center (REF), which is defined as the weighted average distribution of the fluorescent signal along the gastrointestinal tract: GC=Σ(% of total fluorescent signal per segment×segment number)/100,
# Higher GC values represent faster rates of transit on scale of 1 to 15.
# Surgical manipulation of the small bowel leads to a significant delay in gastrointestinal transit, going from a Geometric Center of 8.4 in normal mice to 3.3 in vehicle treated animals.
# Male CD-1 mice [8] = assay: Postoperative inflammatory ileus, microscopic myeloperoxidase histological examination; type: in vivo; settings: Surgical Manipulation, dose 1 mg/kg, 24 hr post-laparotomy, mean ± SE
# Procedure: as §8, §9
# Microscopic histological examination was performed on harvested tissues 24 hr post-laparotomy. […] Hanker-Yates reagent (Polysciences Inc.) forms an insoluble, blue-black polymer in the presence of hydrogen peroxide and peroxidase enzyme activity. Segments of mid small bowel were collected from the centrifuge tubes described in the previous section. Whole mounts of the muscle layer were prepared by opening the tube of bowel along the mesenteric border and pinning the tissue flat in a Sylgard™ lined Petri dish with the mucosal surface facing upward. The tissue was stretched to 1.5 times its length and 2.5 times its width, and the mucosa removed by fine dissection. The remaining muscularis whole mounts were then fixed with 100% ethanol for 45 min, washed 3 times with PBS, and incubated for 20 min in PBS containing 0.1% hydrogen peroxide and 1 mg/ml Hanker-Yates reagent (Polysciences, Inc). The reagent is polymerized in the presence of hydrogen peroxide and peroxidase activity to form a blue-black deposit. Following a second wash with PBS, the whole mounts were mounted on glass slides, cover-slipped, and viewed on an optical microscope. Myeloperoxidase containing leukocytes were counted in 6 to 8 adjacent 200× optical fields, and the mean cell counts were calculated and recorded.
# The presence of myeloperoxidase (MPO) positive immune cells in the intestinal muscularis is rare in normal animals.
# [9] = test concentration 0.2 μM (footnote 2), 0.2 µM
# T1 sequence (P34972 whole entry): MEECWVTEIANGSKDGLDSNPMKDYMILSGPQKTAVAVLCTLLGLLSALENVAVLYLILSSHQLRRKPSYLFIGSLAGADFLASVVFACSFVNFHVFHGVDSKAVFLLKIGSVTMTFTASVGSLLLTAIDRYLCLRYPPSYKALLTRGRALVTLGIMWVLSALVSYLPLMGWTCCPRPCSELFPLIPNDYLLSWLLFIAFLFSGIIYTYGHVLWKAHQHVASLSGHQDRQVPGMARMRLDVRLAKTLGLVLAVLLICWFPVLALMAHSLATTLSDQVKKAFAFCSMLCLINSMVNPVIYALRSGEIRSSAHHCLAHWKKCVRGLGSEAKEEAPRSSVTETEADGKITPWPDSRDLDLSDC
Compound,CB2 receptor binding percent inhibition (CB2 receptor [1]; [9]),EC50 (CB1 receptor [2]) [µM],EC50 (CB2 receptor [3]) [nM],CB1 receptor binding percent inhibition (CB1 receptor [4]; [9]),IC50 (CB1 receptor [5]) [nM],"inhibition at 0.2 µM (CB2 receptor [1]; read-out: CB2 receptor binding percent inhibition, test concentration 0.2 μM (footnote 2)) [%]",IC50 (CB2 receptor [6]) [nM],"inhibition at 0.2 µM (CB1 receptor [4]; read-out: CB1 receptor binding percent inhibition, test concentration 0.2 μM (footnote 2)) [%]",Geometric Center (upper gastrointestinal transit) (Male CD-1 mice [7]),MPO-Positive Cells (Per 200× Optical Field) (Male CD-1 mice [8])
"C[C@H](NS(=O)(=O)/C=C/c1n[nH]c2c1CCCCC2Cc1cccc(F)c1)c1ccccc1 (single isomer, unassigned) [Cpd 233, (2E)-2-[(8S*)-8-(3-fluoro-benzyl)-1,4,5,6,7,8-hexahydro-cycloheptapyrazol-3-yl]-ethenesulfonic acid [(1S)-1-phenyl-ethyl]-amide]",^(2)20%,~4.4,~1300,^(2)0%,–,–,–,–,–,–
"O=C(N[C@H](CO)c1ccccc1)c1n[nH]c2c1CCCCC2Cc1cccc(Cl)c1 (stereo partly drawn) [Cpd 164, 8-(3-chloro-benzyl)-1,4,5,6,7,8-hexahydro-cycloheptapyrazole-3-carboxylic acid [(1S)-2-hydroxy-1-phenyl-ethyl]-amide]",–,> 1,25,–,870,94,230,26,–,–
"C[C@@H]1C[C@H]2[C@@H]3CCC4=CC(=O)C=C[C@]4(C)[C@@]3(F)[C@@H](O)C[C@]2(C)[C@@]1(O)C(=O)CO [dexamethasone, reference compound]",–,–,–,–,–,–,–,–,6.0 ± 0.14,29.8 ± 3.9
